Measured values taken from US20040018235A1, “Controlled release pharmaceutical composition” (KOWA CO., LTD, priority 2002, published 2004).

Assay: Absorption sites of pitavastatin in rat (in situ loop test)
Format: in vivo

- Absorption percentage (duodenum, 0.5 h): 65.9 ± 2.1%
- Absorption percentage (duodenum, 1 h): 60.3 ± 10.2%
- Absorption percentage (large intestine, 0.5 h): 34.4 ± 3.7%
- Absorption percentage (large intestine, 1 h): 51.6 ± 6.7%
- Percentage of absorption in the small intestine relative to that in the duodenum (see Table 1): about one-third
- Absorption percentage (small intestine, 0.5 h): 23.1 ± 3.8%
- Absorption percentage (small intestine, 1 h): 21.3 ± 3.0%
- Absorption percentage (stomach, 0.5 h): 8.6 ± 1.1%
- Absorption percentage (stomach, 1 h): 14.4 ± 1.6%
Compound: O=C(O)C[C@H](O)C[C@H](O)/C=C/c1c(C2CC2)nc2ccccc2c1-c1ccc(F)cc1 [pitavastatin, (+)-(3R,5S,6E)-7-[2-cyclopropyl-4-(4-fluorophenyl)-3-quinolyl]-3,5-dihydroxy-6-heptenoic acid]
